In patent publication US12723063B2, “GIPR-agonist compounds” (Eli Lilly and Company, priority 2019, dated 2026):
*1 amine or outer side, *2 acyl side, *3 side chain or, on linkers, in order; H or OH if unused. Where a SMILES comes first, the peptide text is derived from it. Side-chain parts run from the residue outwards. [ ]: non-standard residue; d: D form. The star is where a group is joined. C20 diacid = O=C(O)CCCCCCCCCCCCCCCCCCC(=O)*; C18 diacid = O=C(O)CCCCCCCCCCCCCCCCC(=O)*; αMePhe(2-F) = C[C@](N)(Cc1ccccc1F)C(=O)O; γGlu = O=C(O)[C@H](CCC(=O)[*:2])N[*:1]; 4Pal = N[C@@H](Cc1ccncc1)C(=O)O; αMeL = CC(C)C[C@](C)(N)C(=O)O; AEEA = NCCOCCOCC(=O)O; Aib = CC(C)(N)C(=O)O

How the values were obtained:
[1] = molecular target: T1, human GcgR (Homo sapiens, UniProt P47871); experiment: [125I]-Glucagon binding, SPA with WGA beads, 0.1% bacitracin; conditions: geometric mean, read-out: hGcgR Ki
T1 construct: expressed in transfected cells; crude membranes
Procedure, shortened: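 SPA competition binding with WGA beads on crude membranes from HEK293 cells stably expressing hGcgR. Buffer: 25 mM HEPES pH 7.4, 2.5 mM CaCl2, 1 mM MgCl2, 0.1% bacitracin, 0.003% Tween-20; 10-point 3-fold dilutions, NSB with 1 μM Gcg.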

[2] = molecular target: T2, human GIPR (Homo sapiens, UniProt P48546); experiment: [125I]-GIP binding, SPA with WGA beads, 0.1% bacitracin; conditions: geometric mean, read-out: hGIPR Ki
T2 construct: expressed in transfected cells; crude membranes
T2 sequence (P48546 22-466): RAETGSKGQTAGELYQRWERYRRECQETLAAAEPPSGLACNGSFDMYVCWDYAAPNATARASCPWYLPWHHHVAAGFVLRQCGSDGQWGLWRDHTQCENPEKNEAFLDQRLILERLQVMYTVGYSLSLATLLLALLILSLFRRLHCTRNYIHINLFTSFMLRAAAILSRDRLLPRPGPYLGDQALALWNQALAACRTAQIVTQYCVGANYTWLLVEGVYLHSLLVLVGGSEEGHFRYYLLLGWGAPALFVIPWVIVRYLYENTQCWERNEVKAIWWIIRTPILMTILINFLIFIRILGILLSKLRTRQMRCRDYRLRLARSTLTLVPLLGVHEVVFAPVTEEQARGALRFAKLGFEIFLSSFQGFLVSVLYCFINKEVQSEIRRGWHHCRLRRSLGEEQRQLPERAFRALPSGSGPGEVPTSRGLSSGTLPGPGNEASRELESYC
Procedure, shortened: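 Ki values are geometric means (SEM, n independent days), derived from four-parameter nonlinear regression of IC50. Membranes came from hGIPR-expressing CHO cells.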

T1 sequence (P47871 26-477): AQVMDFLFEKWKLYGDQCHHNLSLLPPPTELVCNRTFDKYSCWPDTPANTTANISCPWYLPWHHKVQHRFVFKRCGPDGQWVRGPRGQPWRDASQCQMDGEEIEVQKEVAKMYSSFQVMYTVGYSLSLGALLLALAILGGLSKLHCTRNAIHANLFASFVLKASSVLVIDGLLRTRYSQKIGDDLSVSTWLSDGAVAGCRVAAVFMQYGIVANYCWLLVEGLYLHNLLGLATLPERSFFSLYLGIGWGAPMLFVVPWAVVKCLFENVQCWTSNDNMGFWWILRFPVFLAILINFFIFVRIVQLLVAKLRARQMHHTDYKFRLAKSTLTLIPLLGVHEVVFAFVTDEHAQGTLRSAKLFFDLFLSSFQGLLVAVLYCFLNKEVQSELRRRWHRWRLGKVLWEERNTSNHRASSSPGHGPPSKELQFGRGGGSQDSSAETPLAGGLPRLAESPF

SMILES	Ki [1] [nM]	Ki [2] [nM]
CC[C@H](C)[C@H](NC(=O)[C@H](CCCCN)NC(=O)[C@H](CC(=O)O)NC(=O)[C@H](CC(C)C)NC(=O)[C@](C)(CC(C)C)NC(=O)[C@@H](NC(=O)[C@H](CO)NC(=O)[C@H](Cc1ccc(O)cc1)NC(=O)[C@H](CC(=O)O)NC(=O)[C@H](CO)NC(=O)[C@@H](NC(=O)[C@H](Cc1ccccc1)NC(=O)[C@@H](NC(=O)CNC(=O)[C@H](CCC(=O)O)NC(=O)C(C)(C)NC(=O)[C@@H](N)Cc1ccc(O)cc1)[C@@H](C)O)[C@@H](C)CC)[C@@H](C)CC)C(=O)N[C@@H](CCCNC(=N)N)C(=O)N[C@@H](CCC(N)=O)C(=O)NC(C)(C)C(=O)N[C@@H](CC(=O)O)C(=O)N[C@@H](Cc1ccccc1)C(=O)N[C@H](C(=O)N[C@@H](CCC(=O)O)C(=O)N[C@@H](Cc1ccc(O)cc1)C(=O)N[C@@H](CCCCNC(=O)COCCOCCNC(=O)COCCOCCNC(=O)CC[C@H](NC(=O)CCCCCCCCCCCCCCCCCCC(=O)O)C(=O)O)C(=O)N[C@@H](CC(C)C)C(=O)N[C@@H](CCC(=O)O)C(=O)NCC(=O)NCC(=O)N1CCC[C@H]1C(=O)N[C@@H](CO)C(=O)N[C@@H](CO)C(=O)NCC(=O)N[C@@H](C)C(=O)N1CCC[C@H]1C(=O)N1CCC[C@H]1C(=O)N1CCC[C@H]1C(=O)N[C@@H](CO)C(N)=O)C(C)C [Example 115] (H-Y[Aib]EGTFISDYSI[αMeL]LDKIRQ[Aib]DFVEYK([AEEA-AEEA-γGlu-C20 diacid])LEGGPSSGAPPPS-NH2)	373	0.0997
CC[C@H](C)[C@H](NC(=O)[C@H](CO)NC(=O)[C@H](Cc1ccc(O)cc1)NC(=O)[C@H](CC(=O)O)NC(=O)[C@H](CO)NC(=O)[C@@H](NC(=O)[C@H](Cc1ccccc1)NC(=O)[C@@H](NC(=O)CNC(=O)[C@H](CCC(=O)O)NC(=O)[C@@H](C)NC(=O)[C@@H](N)Cc1ccc(O)cc1)[C@@H](C)O)[C@@H](C)CC)C(=O)N[C@@H](CC(C)C)C(=O)N[C@@H](CC(C)C)C(=O)N[C@@H](CC(=O)O)C(=O)N[C@@H](CCCCN)C(=O)N[C@@H](CCCCNC(=O)COCCOCCNC(=O)COCCOCCNC(=O)CC[C@H](NC(=O)CCCCCCCCCCCCCCCCC(=O)O)C(=O)O)C(=O)N[C@@H](C)C(=O)N[C@@H](CCC(N)=O)C(=O)NC(C)(C)C(=O)N[C@@H](CCC(=O)O)C(=O)N[C@@H](Cc1ccccc1)C(=O)N[C@H](C(=O)N[C@@H](CCC(=O)O)C(=O)N[C@@H](Cc1c[nH]c2ccccc12)C(=O)N[C@@H](CC(C)C)C(=O)N[C@@H](CC(C)C)C(=O)N[C@@H](C)C(=O)NCC(=O)NCC(=O)N1CCC[C@H]1C(=O)N[C@@H](CO)C(=O)N[C@@H](CO)C(=O)NCC(=O)N[C@@H](C)C(=O)N1CCC[C@H]1C(=O)N1CCC[C@H]1C(=O)N1CCC[C@H]1C(=O)N[C@@H](CO)C(N)=O)C(C)C [Example 29] (H-Y[dA]EGTFISDYSILLDKK([AEEA-AEEA-γGlu-C18 diacid])AQ[Aib]EFVEWLLAGGPSSGAPPPS-NH2)	133	0.0569
CC[C@H](C)[C@H](NC(=O)[C@H](CO)NC(=O)[C@H](Cc1ccc(O)cc1)NC(=O)[C@H](CC(=O)O)NC(=O)[C@H](CO)NC(=O)[C@@H](NC(=O)[C@H](Cc1ccccc1)NC(=O)[C@@H](NC(=O)CNC(=O)[C@H](CCC(=O)O)NC(=O)C(C)(C)NC(=O)[C@@H](N)Cc1ccc(O)cc1)[C@@H](C)O)[C@@H](C)CC)C(=O)N[C@@H](CC(C)C)C(=O)N[C@@H](CC(C)C)C(=O)N[C@@H](CC(=O)O)C(=O)N[C@@H](CCCCN)C(=O)N[C@@H](CCCCNC(=O)COCCOCCNC(=O)COCCOCCNC(=O)CC[C@H](NC(=O)CCCCCCCCCCCCCCCCC(=O)O)C(=O)O)C(=O)N[C@@H](Cc1c[nH]cn1)C(=O)N[C@@H](CCC(N)=O)C(=O)NC(C)(C)C(=O)N[C@@H](CC(=O)O)C(=O)N[C@@H](Cc1ccccc1)C(=O)N[C@H](C(=O)N[C@@H](CC(N)=O)C(=O)N[C@@H](Cc1ccc(O)cc1)C(=O)N[C@@H](CC(C)C)C(=O)N[C@@H](CC(C)C)C(=O)N[C@@H](C)C(=O)N[C@@H](C)C(=O)NCC(=O)N1CCC[C@H]1C(=O)N[C@@H](CO)C(=O)N[C@@H](CO)C(=O)NCC(=O)N[C@@H](C)C(=O)N1CCC[C@H]1C(=O)N1CCC[C@H]1C(=O)N1CCC[C@H]1C(=O)N[C@@H](CO)C(N)=O)C(C)C [Example 31] (H-Y[Aib]EGTFISDYSILLDKK([AEEA-AEEA-γGlu-C18 diacid])HQ[Aib]DFVNYLLAAGPSSGAPPPS-NH2)	> 959	0.0473
CC[C@H](C)[C@H](NC(=O)[C@H](CCCN)NC(=O)[C@H](CC(=O)O)NC(=O)[C@H](CC(C)C)NC(=O)[C@](C)(CC(C)C)NC(=O)[C@@H](NC(=O)[C@H](CO)NC(=O)[C@H](Cc1ccc(O)cc1)NC(=O)[C@H](CC(=O)O)NC(=O)[C@H](CO)NC(=O)[C@@H](NC(=O)[C@H](Cc1ccccc1)NC(=O)[C@@H](NC(=O)CNC(=O)[C@H](CCC(=O)O)NC(=O)C(C)(C)NC(=O)[C@@H](N)Cc1ccc(O)cc1)[C@@H](C)O)[C@@H](C)CC)[C@@H](C)CC)C(=O)N[C@@H](Cc1c[nH]cn1)C(=O)N[C@@H](CCC(N)=O)C(=O)NC(C)(C)C(=O)N[C@@H](CC(=O)O)C(=O)N[C@@H](Cc1ccccc1)C(=O)N[C@H](C(=O)N[C@H](CCC(=O)O)C(=O)N[C@@H](Cc1ccc(O)cc1)C(=O)N[C@@H](CCCCNC(=O)COCCOCCNC(=O)COCCOCCNC(=O)CC[C@H](NC(=O)CCCCCCCCCCCCCCCCCCC(=O)O)C(=O)O)C(=O)N[C@@H](CC(C)C)C(=O)N[C@@H](CCC(=O)O)C(=O)NCC(=O)NCC(=O)N1CCC[C@H]1C(=O)N[C@@H](CO)C(=O)N[C@@H](CO)C(=O)NCC(=O)N[C@@H](C)C(=O)N1CCC[C@H]1C(=O)N1CCC[C@H]1C(=O)N1CCC[C@H]1C(=O)N[C@@H](CO)C(N)=O)C(C)C [Example 101]	> 961	0.139
CC[C@H](C)[C@H](NC(=O)[C@H](Cc1ccccc1)NC(=O)[C@@H](NC(=O)CNC(=O)[C@H](CCC(=O)O)NC(=O)C(C)(C)NC(=O)[C@@H](N)Cc1ccc(O)cc1)[C@@H](C)O)C(=O)N[C@@H](CO)C(=O)N[C@@H](CC(=O)O)C(=O)N[C@@H](Cc1ccc(O)cc1)C(=O)N[C@@H](CO)C(=O)N[C@H](C(=O)NC(C)(C)C(=O)N[C@@H](CC(C)C)C(=O)N[C@@H](CC(=O)O)C(=O)N[C@@H](CCCCN)C(=O)N[C@@H](CCCCNC(=O)COCCOCCNC(=O)COCCOCCNC(=O)CC[C@H](NC(=O)CCCCCCCCCCCCCCCCC(=O)O)C(=O)O)C(=O)N[C@@H](Cc1c[nH]cn1)C(=O)N[C@@H](CCC(N)=O)C(=O)NC(C)(C)C(=O)N[C@@H](CC(=O)O)C(=O)N[C@@H](Cc1ccccc1)C(=O)N[C@H](C(=O)N[C@@H](CCC(=O)O)C(=O)N[C@@H](Cc1ccncc1)C(=O)N[C@@H](CC(C)C)C(=O)N[C@@H](CC(C)C)C(=O)N[C@@H](C)C(=O)NCC(=O)NCC(=O)N1CCC[C@H]1C(=O)N[C@@H](CO)C(=O)N[C@@H](CO)C(=O)NCC(=O)N[C@@H](C)C(=O)N1CCC[C@H]1C(=O)N1CCC[C@H]1C(=O)N1CCC[C@H]1C(=O)N[C@@H](CO)C(N)=O)C(C)C)[C@@H](C)CC [Example 24]	> 960	0.254
CC[C@H](C)[C@H](NC(=O)[C@H](CO)NC(=O)[C@H](Cc1ccc(O)cc1)NC(=O)[C@H](CC(=O)O)NC(=O)[C@H](CO)NC(=O)[C@@H](NC(=O)[C@](C)(Cc1ccccc1F)NC(=O)[C@@H](NC(=O)CNC(=O)[C@H](CCC(=O)O)NC(=O)C(C)(C)NC(=O)[C@@H](N)Cc1ccc(O)cc1)[C@@H](C)O)[C@@H](C)CC)C(=O)N[C@@H](CC(C)C)C(=O)N[C@@H](CC(C)C)C(=O)N[C@@H](CC(=O)O)C(=O)N[C@@H](CCCCN)C(=O)N[C@H](C(=O)N[C@@H](Cc1c[nH]cn1)C(=O)N[C@@H](CCC(N)=O)C(=O)NC(C)(C)C(=O)N[C@@H](CC(=O)O)C(=O)N[C@@H](Cc1ccccc1)C(=O)N[C@H](C(=O)N[C@@H](CCC(=O)O)C(=O)N[C@@H](Cc1ccncc1)C(=O)N[C@@H](CCCCNC(=O)COCCOCCNC(=O)COCCOCCNC(=O)CC[C@H](NC(=O)CCCCCCCCCCCCCCCCCCC(=O)O)C(=O)O)C(=O)N[C@@H](CC(C)C)C(=O)N[C@@H](CCC(=O)O)C(=O)N[C@@H](CCC(N)=O)C(=O)NCC(=O)N1CCC[C@H]1C(=O)N[C@@H](CO)C(=O)N[C@@H](CO)C(=O)NCC(=O)N[C@@H](C)C(=O)N1CCC[C@H]1C(=O)N1CCC[C@H]1C(=O)N1CCC[C@H]1C(=O)N[C@@H](CO)C(N)=O)C(C)C)[C@@H](C)CC [Example 121] (H-Y[Aib]EGT[αMePhe(2-F)]ISDYSILLDKIHQ[Aib]DFVE[4Pal]K([AEEA-AEEA-γGlu-C20 diacid])LEQGPSSGAPPPS-NH2)	94.9	0.103
